In general, EC50 refers to the midpoint of the concentration-response curve. Low values mean higher potency in that assay, high ones lower potency in that assay.

Series [1] addresses T1, NC-p7 protein (Human immunodeficiency virus type 1 group M subtype B, UniProt P04591).
T1 construct: nucleocapsid p7 (NCp7) protein portion of the polyprotein
Nature of the series: High throughput screen: disruption of association of viral NC-p7 protein with a biotinylated 28 base oligonucleotide. Type of series: binding, HIV-1. The settings on record: 10 μM of test compound; hit threshold 100% inhibition. The procedure:
A high throughput screen was used to detect small molecules that disrupted the association of viral NC-p7 protein with an oligonucleotide. The assay was performed using a Tomtec Quadra robotic system. NC protein was immobilized on Costar (Corning, N.Y.) high-bind polystyrene 96 well plates by incubating 100 μl 250 nM NC-p7 in phosphate buffered saline (PBS)/10 μM zinc chloride/10 mM β-mercaptoethanol/0.05% Tween overnight at 4° C. 200 μl of 2% BSA in PBS/10 μM zinc chloride/10 mM β-mercaptoethanol/0.05% Tween was added and incubated at room temperature for 1-2 hours in order to block the plates. The plates were then washed 2 times with 200 μl PBS/10 μM zinc chloride/10 mM β-mercaptoethanol/0.05% Tween using a Titertek M96V plate washer and stored overnight at 4° C. 5 nM biotinylated 28 base oligonucleotide (5′ […] 3′) in PBS/10 μM zinc chloride/10 mM β-mercaptoethanot/0.05% Tween was added to each well followed by 10 μM of test compound (in 20% dimethyl sulphoxide) from the Diversity Set and allowed to incubate at room temperature for 1 hour. Plates were then washed 3 times with 200 μl PBS/0.05% Tween. Binding of the biotinylated 28 mer was measured by adding 100 μl 1:20000 dilution of nutravidin-horse radish peroxidase (stock 0.8 mg/ml, from Pierce Chemical Co. Rockford, Ill.) and incubating at room temperature for 1 hour. The plates were washed 3 times with 200 μl PBS/0.05% Tween. Plates were developed by adding 100 μl of Supersignal (Pierce Chemical Co. Rockford, Ill.) and bioluminescence was measured in a Wallac Victor plate reader. […] The hit threshold was set at 100% inhibition.

For series [2], the system named is HIV. Nature of the series: XTT-cytoprotection assay, cell based anti-HIV screening in CEM-SS cells. The settings on record: for XTT: protection from HIV infection. The source says: One exemplary means to determine antiviral activity is with CEM-SS cells and virus (e.g., HIV-1RF) (MOI=0.01) using the XTT (2,3-bis[2-methoxy- 4-nitro-5-sulfophenyl]-5- [(phenylamino)carbonyl]-2H-tetrazolium hydroxide) cytoprotection assay (see, e.g., Weislow, et al, J. Natl. Canc. Inst. 81: 577-586, 1989; Rice PNAS 90:9721-9724, 1993; and Rice Antimicrob. Agents Chemother. 41:419-426, 1997). Briefly, cells are infected with HIV-1RF (or other virus to be tested) in the presence of various dilutions of test compounds (antimony or diphenyl compounds and controls). The cultures are incubated for seven days. […] The cell death is measured by XTT dye reduction. XTT is a soluble tetrazolium dye that measures mitochondrial energy output, similar to MTT. Positive controls using dextran sulfate (an attachment inhibitor) or 3′-Azido -2′-3′-dideoxythymidine, AZT (a reverse transcriptase inhibitor) are added to each assay. Individual assays are done in duplicate using a sister plate method.
Effective antiviral concentrations providing 50% cytoprotection (EC50), and cellular growth inhibitory concentrations causing 50% cytotoxicity (IC50) are calculated.
Cell based anti-HIV screening was performed in CEM-SS cells, using an XTT-cytoprotection assay (see, e.g., Weislow, et al, J. Natl. Canc. Inst. 81: 577-586, 1989; Rice PNAS 90:9721-9724, 1993; and Rice Antimicrob. Agents Chemother. 41:419-426, 1997)).
A general note: Tetrazolium assays rely on reduction of a dye to a coloured formazan, in cell work by metabolically active cells.

The target of series [3] is T2, Gag precursor protein (Human immunodeficiency virus type 1 group M subtype B, UniProt P04591).
T2 construct: human immunodeficiency virus type 1 Gag protein lacking the p6 domain; made in house
Briefly: Secondary screen: disruption of in vitro assembly of Gag precursor protein into virus-like particles. Type of series: biochemical. The settings on record: for disrupted viral assembly: artificial viral particles from recombinant Gag protein and tRNA; for EC50: in vitro, assay not given. The source says:
A secondary screen was used to identify small molecules that disrupt in vitro assembly of Gag precursor protein into virus-like particles. Artificial viral particles were assembled from recombinant Gag protein and tRNA as previously described (see, e.g., Campbell & Rein, “In vitro assembly properties of human immunodeficiency virus type 1 Gag protein lacking the p6 domain” J. Virol. 73: 2270-2279, 1999). […]

The subject of series [4] is p24. The settings on record: unit not given.
A short description of series [5]: Tolerability in mice. It is filed as in vivo.
For series [6], the system named is CEM-SS Leukemia cells. Nature of the series: Uptake of radio-labelled compound in cells. Type of series: in vitro ADME.

On to `O=S(=O)(O)c1cc[c]([Sb](=[O])([OH])[OH])cc1` [NSC 13746], for which, in series [1], the “Active compounds identified in high throughput screen (disruption of NC-p7/oligonucleotide association)” value (“Active compounds identified” below) is on record as “Active”. Besides, in series [2], the “activity in the cell based assay (XTT cytoprotection ranking)” value (from here on “activity in the cell based assay”) is given as “active” and the XTT entry is “A (active (80-100% protection from HIV infection))”. Further, in series [3], the disrupted viral assembly entry is reported as “disrupted viral assembly” and a half-maximal effect (EC50) was put at 10 µM.

Consider `O=C(O)c1cc[c]([Sb](=[O])([OH])[OH])cc1[N+](=O)[O-]` [NSC 13755], for which the p24 assay in series [4] is listed as 0.21. In addition, the “Active compounds identified” value in series [1] is reported as “Active”. Moreover, in series [2], the “activity in the cell based assay” value was “active” and the XTT entry is listed as “A (active (80-100% protection from HIV infection))”. Also, in series [3], the disrupted viral assembly entry was “disrupted viral assembly” and a half-maximal response (EC50) required 6.15 µM.

In turn, `O=C(O)c1ccc[c]([Sb](=[O])([OH])[OH])c1` [NSC 13759] showed a p24 assay in series [4] of 0.19. Moreover, in series [2], the “activity in the cell based assay” value is reported as “active” and the XTT result was “A (active (80-100% protection from HIV infection))”. In series [3], the disrupted viral assembly entry is “disrupted viral assembly” and the EC50 was found to be 1.5 µM.

In turn, `O=C(O)c1cc[c]([Sb](=[O])([OH])[OH])cc1` [NSC 13760] showed a p24 assay in series [4] of 0.29. Further, in series [2], the “activity in the cell based assay” value was “active” and the XTT entry is “A (active (80-100% protection from HIV infection))”. For the same compound, in series [3], the disrupted viral assembly result is on record as “disrupted viral assembly” and the EC50 was found to be 1.15 µM.

For the compound `NC(=O)c1ccc[c]([Sb](=[O])([OH])[OH])c1` [NSC 13765], the p24 assay in series [4] was found to be 0.41. In series [2], the “activity in the cell based assay” value was “active” and the XTT entry is listed as “A (active (80-100% protection from HIV infection))”. Also, in series [3], the disrupted viral assembly entry was “disrupted viral assembly” and the EC50 stood at 3.75 µM.

Take `COC(=O)c1ccc[c]([Sb](=[O])([OH])[OH])c1` [NSC 13771]: in series [4], the p24 assay was 0.2. The XTT result in series [2] was “I (inactive (0-49% protection))”. In series [3], the disrupted viral assembly entry was “disrupted viral assembly” and it took 5.5 µM to reach a half-maximal effect (EC50).

Consider `O=C(O)/C=C/c1ccc[c]([Sb](=[O])([OH])[OH])c1` [NSC 13778], for which the tolerability in vivo result in series [5] was “tolerated in vivo”. This compound also gave a p24 assay in series [4] of 0.11. Besides, the “Active compounds identified” value in series [1] is “Active”. Moreover, the “uptake of the compound in cells” value in series [6] was “energy-dependent uptake”. Moreover, in series [2], the “activity in the cell based assay” value is listed as “active” and the XTT result was “A (active (80-100% protection from HIV infection))”. For the same compound, in series [3], the disrupted viral assembly result is “disrupted viral assembly” and the EC50 is 3.8 µM.

Consider `O=C(NCCO)c1ccc[c]([Sb](=[O])([OH])[OH])c1` [NSC 13782], for which the “activity in the cell based assay” value in series [2] was “exhibited activity”.

The compound `CCOC(=O)CCCc1cc[c]([Sb](=[O])([OH])[OH])cc1` [NSC 13793] came in with a p24 assay in series [4] of 0.14. For the same compound, the XTT entry in series [2] is “I (inactive (0-49% protection))”. Moreover, in series [3], the disrupted viral assembly result is listed as “disrupted viral assembly” and a half-maximal effect (EC50) was put at 3.25 µM.

For the compound `O=C(O)c1ccc(C(=O)c2ccccc2C(=O)O)cc1C(=O)O` [NSC 28620], in series [1], the “Active compounds identified” value was “Active”. The “activity in the cell based assay” value in series [2] was “active”. In addition, the disrupted viral assembly result in series [3] is given as “disrupted viral assembly”.
